Laboratory results taken from paper PMC9656811, “Structure-Based Discovery and Biological Assays of a Novel PRMT5 Inhibitor for Non-Small Cell Lung Cancer” (Molecules, 2022).

Biological target: Protein arginine methyltransferase 5 (PRMT5) (Homo sapiens, UniProt O14744)
Experiment: AlphaLISA methyltransferase assay, […] concentrations, PRMT5 from BPS Bioscience (Cat. No. […])
Format: biochemical

Sequence of Protein arginine methyltransferase 5 (PRMT5) (O14744 2-637): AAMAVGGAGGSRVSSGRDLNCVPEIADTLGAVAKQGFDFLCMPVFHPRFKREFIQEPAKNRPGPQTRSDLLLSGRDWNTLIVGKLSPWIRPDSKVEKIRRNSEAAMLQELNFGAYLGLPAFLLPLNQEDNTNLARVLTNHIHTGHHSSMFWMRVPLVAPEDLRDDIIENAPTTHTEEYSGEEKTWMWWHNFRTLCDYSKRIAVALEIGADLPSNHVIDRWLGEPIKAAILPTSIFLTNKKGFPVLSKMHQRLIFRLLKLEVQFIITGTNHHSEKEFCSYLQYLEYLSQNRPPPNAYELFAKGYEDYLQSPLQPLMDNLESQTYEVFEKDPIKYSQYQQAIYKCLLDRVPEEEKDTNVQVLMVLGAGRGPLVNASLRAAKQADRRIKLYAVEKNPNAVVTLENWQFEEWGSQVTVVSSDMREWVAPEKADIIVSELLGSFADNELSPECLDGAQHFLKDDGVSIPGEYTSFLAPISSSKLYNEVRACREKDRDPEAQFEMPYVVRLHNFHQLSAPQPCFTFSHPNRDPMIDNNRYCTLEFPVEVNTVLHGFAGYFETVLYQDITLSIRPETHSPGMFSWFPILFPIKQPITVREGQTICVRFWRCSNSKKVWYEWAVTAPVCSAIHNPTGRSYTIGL
Sequence of Protein arginine methyltransferase 5 (PRMT5) (Q9BQA1 whole entry partner): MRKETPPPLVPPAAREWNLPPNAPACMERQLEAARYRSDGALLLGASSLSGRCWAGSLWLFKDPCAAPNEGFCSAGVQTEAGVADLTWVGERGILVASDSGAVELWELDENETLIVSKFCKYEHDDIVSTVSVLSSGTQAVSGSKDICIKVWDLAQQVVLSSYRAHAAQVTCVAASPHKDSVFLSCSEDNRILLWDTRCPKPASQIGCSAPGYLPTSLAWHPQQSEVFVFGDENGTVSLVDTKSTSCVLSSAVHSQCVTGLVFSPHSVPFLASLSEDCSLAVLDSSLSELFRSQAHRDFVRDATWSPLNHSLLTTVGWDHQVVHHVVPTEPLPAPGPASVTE

IC50: 63 µM
Compound: O=C1c2ccccc2C(=O)c2c(NCCCN(CCO)CCO)cccc21 [3039-0164]
